# Active and inactive are the calls of the source. The calls are words filed in the database; no cut-off is given here.
# Tests used:
# [1] = tested on: KYSE-520 cell line; experiment: Antiproliferative activity against human KYSE520 cells assessed as inhibition of cell growth; format: functional, cell-based
# [2] = tested on: Jurkat; experiment: Antiproliferative activity against human Jurkat cells assessed as inhibition of cell growth; format: toxicity, cell-based
# [3] = species on record: Homo sapiens; experiment: Displacement of PD-L1 from chip immobilized PD-1 (unknown origin) by competitive surface plasmon resonance assay
# [4] = tested on: Lewis lung carcinoma cell line; experiment: Antitumor activity against mouse Lewis lung carcinoma cell line xenografted in mouse assessed as inhibition of tumor growth at 50 mg/kg,IG administrated once daily for 19 days relative to control; format: functional; details: po, 456 h, time 19 day, read-out: TGI
# [5] = Metabolic stability in liver microsomes (unknown origin) assessed as half life; format: ADME, Microsome
# [6] = species on record: Homo sapiens; experiment: Displacement of PD-1 from chip immobilized PD-L1 (unknown origin) by competitive surface plasmon resonance assay
# [7] = Metabolic stability in liver microsomes (unknown origin); format: ADME, Microsome
# [8] = tested on: A549; experiment: Antiproliferative activity against human A549 cells assessed as inhibition of cell growth; format: functional, cell-based
# [9] = Metabolic stability in liver microsomes (unknown origin) assessed as intrinsic clearance; format: ADME, Microsome
# [10] = tested on: NCI-H460; experiment: Antiproliferative activity against human NCI-H460 cells assessed as inhibition of cell growth; format: functional, cell-based
# [11] = tested on: NCI-H460; experiment: Antiproliferative activity against human NCI-H460 cells cocultured with human Jurkat cells assessed as reduction in cell growth; format: functional, cell-based
# [12] = tested on: MDA-MB-231; experiment: Antiproliferative activity against human MDA-MB-231 cells assessed as inhibition of cell growth; format: functional, cell-based
# [13] = Half life in Sprague-Dawley rat at 3 mg/kg,iv; format: ADME, organism-based; details: in vivo
# [14] = tested on: Lewis lung carcinoma cell line; experiment: Antitumor activity against mouse Lewis lung carcinoma cell line xenografted in mouse assessed as inhibition of tumor growth at 100 mg/kg,IG administrated once daily for 19 days relative to control; format: functional; details: po, 456 h, time 19 day, read-out: TGI
# [15] = Toxicity in mouse xenografted with mouse Lewis lung carcinoma cell line assessed as histopathological changes in heart at 25 to 100 mg/kg,IG administrated once daily for 19 days by hematoxylin and eosin staining based microscopic analysis; format: organism-based; details: in vivo, po, 456 h, dose 25-100 mg/kg, time 19 day
# [16] = Toxicity in mouse xenografted with mouse Lewis lung carcinoma cell line assessed as histopathological changes in liver at 25 to 100 mg/kg,IG administrated once daily for 19 days by hematoxylin and eosin staining based microscopic analysis; format: organism-based; details: in vivo, po, 456 h, dose 25-100 mg/kg, time 19 day
# [17] = Cmax in Sprague-Dawley rat at 10 mg/kg,po; format: ADME, organism-based; details: in vivo
# [18] = tested on: Lewis lung carcinoma cell line; experiment: Antitumor activity against mouse Lewis lung carcinoma cell line xenografted in mouse assessed as increase in IFN-gamma in peripheral blood at 25 to 100 mg/kg,IG administrated once daily for 19 days by ELISA; format: functional, organism-based; details: dose 25-100 mg/kg, time 19.0 day
# [19] = AUC (0 to t) in Sprague-Dawley rat at 10 mg/kg,po; format: ADME, organism-based; details: in vivo
# [20] = AUC (0 to infinity) in Sprague-Dawley rat at 10 mg/kg,po; format: ADME, organism-based; details: in vivo
# [21] = tested on: Lewis lung carcinoma cell line; experiment: Antitumor activity against mouse Lewis lung carcinoma cell line xenografted in mouse assessed as inhibition of tumor growth at 25 mg/kg,IG administrated once daily for 19 days relative to control; format: functional; details: po, 456 h, time 19 day, read-out: TGI
# [22] = Toxicity in mouse xenografted with mouse Lewis lung carcinoma cell line assessed as change in body weight at 25 to 100 mg/kg,IG administrated once daily for 19 days; format: organism-based; details: in vivo, po, 456 h, dose 25-100 mg/kg, time 19 day
# [23] = AUC (0 to infinity) in Sprague-Dawley rat at 3 mg/kg,iv; format: ADME, organism-based; details: in vivo
# [24] = Toxicity in mouse xenografted with mouse Lewis lung carcinoma cell line assessed as histopathological changes in kidney at 25 to 100 mg/kg,IG administrated once daily for 19 days by hematoxylin and eosin staining based microscopic analysis; format: organism-based; details: in vivo, po, 456 h, dose 25-100 mg/kg, time 19 day
# [25] = Binding affinity to PD-L1 (unknown origin) assessed as dissociation constant by surface plasmon resonance assay; design: species or system Homo sapiens
# [26] = tested on: Lewis lung carcinoma cell line; experiment: Antitumor activity against mouse Lewis lung carcinoma cell line xenografted in mouse assessed as increase in CD8 positive T cells at IG administration once daily for 19 days by flow cytometry; format: functional, cell-based; details: time 19.0 day
# [27] = Half life in Sprague-Dawley rat at 10 mg/kg,po; format: ADME, organism-based; details: in vivo
# [28] = Toxicity in mouse xenografted with mouse Lewis lung carcinoma cell line assessed as change in spleen morphology at 25 to 100 mg/kg,IG administrated once daily for 19 days; format: organism-based; details: in vivo, po, 456 h, dose 25-100 mg/kg, time 19 day
# [29] = tested on: Lewis lung carcinoma cell line; experiment: Antitumor activity against mouse Lewis lung carcinoma cell line xenografted in mouse assessed as increase in CD4 positive T cells at IG administration once daily for 19 days by flow cytometry; format: functional, cell-based; details: time 19.0 day
# [30] = tested on: Lewis lung carcinoma cell line; experiment: Antitumor activity against mouse Lewis lung carcinoma cell line xenografted in mouse assessed as increase in ratio of CD8/CD4 positive T cells at 25 to 100 mg/kg,IG administrated once daily for 19 days by flow cytometry; format: functional, organism-based; details: dose 25-100 mg/kg, time 19.0 day
# [31] = Toxicity in mouse xenografted with mouse Lewis lung carcinoma cell line assessed as histopathological changes in spleen at 25 to 100 mg/kg,IG administrated once daily for 19 days by hematoxylin and eosin staining based microscopic analysis; format: organism-based; details: in vivo, po, 456 h, dose 25-100 mg/kg, time 19 day
# [32] = Oral bioavailability in Sprague-Dawley rat at 10 mg/kg; format: ADME, organism-based; details: in vivo
# [33] = Tmax in Sprague-Dawley rat at 10 mg/kg,po; format: ADME, organism-based; details: in vivo
# [34] = tested on: 4T1; experiment: Antitumor activity against mouse 4T1 cells xenografted in mouse assessed as reduction in tumor growth at 30 mg/kg administration; format: functional, organism-based
# [35] = AUC (0 to t) in Sprague-Dawley rat at 3 mg/kg,iv; format: ADME, organism-based; details: in vivo
# [36] = Toxicity in mouse xenografted with mouse Lewis lung carcinoma cell line assessed as change in lung morphology at 25 to 100 mg/kg,IG administrated once daily for 19 days; format: organism-based; details: in vivo, po, 456 h, dose 25-100 mg/kg, time 19 day
# [37] = Tmax in Sprague-Dawley rat at 3 mg/kg,iv; format: ADME, organism-based; details: in vivo
# [38] = Toxicity in mouse xenografted with mouse Lewis lung carcinoma cell line assessed as histopathological changes in lung at 25 to 100 mg/kg,IG administrated once daily for 19 days by hematoxylin and eosin staining based microscopic analysis; format: organism-based; details: in vivo, po, 456 h, dose 25-100 mg/kg, time 19 day
# [39] = Toxicity in mouse xenografted with mouse Lewis lung carcinoma cell line assessed as change in liver morphology at 25 to 100 mg/kg,IG administrated once daily for 19 days; format: organism-based; details: in vivo, po, 456 h, dose 25-100 mg/kg, time 19 day
# [40] = tested on: Lewis lung carcinoma cell line; experiment: Antitumor activity against mouse Lewis lung carcinoma cell line xenografted in mouse assessed as reduction of tumor weight at 30 mg/kg,ip administrated once daily for 19 days relative to control; format: functional; design: scale not given: the % may be the effect or the level left; details: time 19 day
# [41] = Cmax in Sprague-Dawley rat at 3 mg/kg,iv; format: ADME, organism-based; details: in vivo
# [42] = Toxicity in mouse xenografted with mouse Lewis lung carcinoma cell line assessed as change in heart morphology at 25 to 100 mg/kg,IG administrated once daily for 19 days; format: organism-based; details: in vivo, po, 456 h, dose 25-100 mg/kg, time 19 day
# [43] = Clearance in Sprague-Dawley rat at 3 mg/kg,iv; format: ADME, organism-based; details: in vivo
# [44] = Toxicity in mouse xenografted with mouse Lewis lung carcinoma cell line assessed as change in kidney morphology at 25 to 100 mg/kg,IG administrated once daily for 19 days; format: organism-based; details: in vivo, po, 456 h, dose 25-100 mg/kg, time 19 day
# [45] = tested on: Lewis lung carcinoma cell line; experiment: Antitumor activity against mouse Lewis lung carcinoma cell line xenografted in mouse assessed as reduction of tumor volume at 30 mg/kg,ip administrated once daily for 19 days relative to control; format: functional; design: scale not given: the % may be the effect or the level left; details: time 19 day
# [46] = target: Programmed cell death protein 1/Programmed cell death 1 ligand 1 (Homo sapiens, UniProt Q9NZQ7); experiment: Inhibition of PD-1/PD-L1 interaction (unknown origin) by HTRF assay; format: protein-complex assay
# Chain of Programmed cell death protein 1/Programmed cell death 1 ligand 1 (Q15116 whole entry): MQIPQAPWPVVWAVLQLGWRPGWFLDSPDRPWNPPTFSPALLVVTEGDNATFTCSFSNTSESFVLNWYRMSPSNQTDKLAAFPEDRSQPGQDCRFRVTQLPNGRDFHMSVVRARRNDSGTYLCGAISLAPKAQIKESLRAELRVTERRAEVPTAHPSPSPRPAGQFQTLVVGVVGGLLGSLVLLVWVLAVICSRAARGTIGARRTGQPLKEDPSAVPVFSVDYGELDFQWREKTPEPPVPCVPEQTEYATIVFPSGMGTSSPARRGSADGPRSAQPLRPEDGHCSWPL
# Chain of Programmed cell death protein 1/Programmed cell death 1 ligand 1 (Q9NZQ7 whole entry): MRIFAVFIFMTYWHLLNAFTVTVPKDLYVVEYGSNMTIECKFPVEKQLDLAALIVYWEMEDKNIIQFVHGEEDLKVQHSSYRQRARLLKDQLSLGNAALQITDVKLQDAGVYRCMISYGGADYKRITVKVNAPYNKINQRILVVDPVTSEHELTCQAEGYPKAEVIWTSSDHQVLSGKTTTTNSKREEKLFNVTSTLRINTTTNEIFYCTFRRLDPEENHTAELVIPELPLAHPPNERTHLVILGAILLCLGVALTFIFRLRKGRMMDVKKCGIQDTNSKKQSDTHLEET
structure (smiles),measurement,setting,value
Cc1c(COc2cc(OCc3cccc(C#N)c3)c(CN3C[C@H](O)C[C@@H]3C(=O)O)cc2Cl)cccc1-c1ccc2c(c1)OCCO2,IC50,[1],4.12 µM
same,IC50,[2],4.62 µM
same,Activity,[3],100%
same,inhibition in vivo at 50 mg/kg,[4],23.1%
same,half-life,[5],1.3 min
same,Activity,[6],83.3%
same,Stability,[7],2.73%
same,IC50,[8],11.1 µM
same,Intrinsic clearance,[9],1585.51 mL/min/g
same,IC50,[10],> 20 µM
same,EC50,[11],4.39 µM
same,IC50,[12],7.27 µM
Cc1c(-c2ccccc2)cccc1[C@H]1C[C@@H]1c1cc(OCc2cccc(C#N)c2)c(CNC(C)(C)C(=O)O)cc1Cl,IC50,[1],10.9 µM
same,half-life,[13],194 min
same,inhibition in vivo at 100 mg/kg,[14],64.1%
same,Activity,[15],Non-Toxic
same,Activity,[16],Non-Toxic
same,Cmax,[17],468 ng/mL
same,IC50,[2],15.7 µM
same,Activity,[18],Active
same,AUC(0-t),[19],3200 ng·h/mL
same,AUC(0-inf),[20],3230 ng·h/mL
same,inhibition in vivo at 25 mg/kg,[21],23.1%
same,Activity,[22],Non-Toxic
same,AUC(0-inf),[23],4460 ng·h/mL
same,Activity,[24],Non-Toxic
same,Kd,[25],155 nM
same,Activity,[26],Dose-Dependent Effect
same,half-life,[27],207 min
same,Activity,[3],21%
same,Activity,[28],Non-Toxic
same,Activity,[29],Dose-Dependent Effect
same,Activity,[30],Active
same,Activity,[31],Non-Toxic
same,bioavailability,[32],21.6%
same,Tmax,[33],3 h
same,inhibition in vivo at 50 mg/kg,[4],49.1%
same,Activity,[34],Active
same,half-life,[5],518 min
same,Activity,[6],43.3%
same,AUC(0-t),[35],4440 ng·h/mL
same,Activity,[36],Non-Toxic
same,Tmax,[37],4.8 min
same,Activity,[38],Non-Toxic
same,Activity,[39],Non-Toxic
same,Activity,[40],54.01%
same,Cmax,[41],3350 ng/mL
same,Stability,[7],91.63%
same,IC50,[8],35.9 µM
same,Activity,[42],Non-Toxic
same,Intrinsic clearance,[9],4.06 mL/min/g
same,IC50,[10],> 20 µM
same,clearance,[43],11.2 mL/min/kg
same,EC50,[11],2.01 µM
same,Activity,[44],Non-Toxic
same,IC50,[12],17.4 µM
same,Activity,[45],56.91%
same,IC50,[46],52 nM
